In publication PMC6576746, “Rational discovery of dual-indication multi-target PDE/Kinase inhibitor for precision anti-cancer therapy using structural systems pharmacology” (PLoS Computational Biology, 2019):

Tests used:
Assay in all cases: cells
Set-up in all cases: species or system panel of human cancer cell lines; Eurofins OncoPanel proliferation; nuclei count by high-content fluorescence imaging, 10-point dose response
BeWo = details: Homo sapiens, BeWo, 72 h, cell count, 3 days
How it was run: (§1)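 Cells in RPMI 1640/10% FBS or special medium received compound the day after seeding, with a time-zero plate; 3-day incubation at 37°C, 5% CO2. Nuclei imaged by fluorescence microscopy; 10 half-log doses from 100 μM, 0.1% DMSO. EC50, IC50, GI50 and activity area (0–10) from curve fits.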

H9 = details: Homo sapiens, H9, 72 h, cell count, 3 days
How it was run: as §1

HT-1197 = details: Homo sapiens, HT1197, 72 h, cell count, 3 days
How it was run: as §1

Jiyoye = details: Homo sapiens, JIYOYE, 72 h, cell count, 3 days
How it was run: as §1

KLE = details: Homo sapiens, KLE, 72 h, cell count, 3 days
How it was run: as §1

MEG01 = details: Homo sapiens, MEG-01, 72 h, cell count, 3 days
How it was run: as §1

MV-4-11 = details: Homo sapiens, MV4-11, 72 h, cell count, 3 days
How it was run: as §1

NCI-H596 = details: Homo sapiens, NCI-H596, 72 h, cell count, 3 days
How it was run: as §1

RPMI 6666 = details: Homo sapiens, RPMI-6666, 72 h, cell count, 3 days
How it was run: as §1

SNU-C2B = details: Homo sapiens, SNU-C2B, 72 h, cell count, 3 days
How it was run: as §1

SW-13 = details: Homo sapiens, SW13, 72 h, cell count, 3 days
How it was run: as §1

SW579 = details: SW579, 72 h, cell count, 3 days
How it was run: as §1

WiDr = details: Homo sapiens, WiDr, 72 h, cell count, 3 days
How it was run: as §1

[1] = 50% of maximum possible response

C[C@@H]1CC(=O)NN=C1c1ccc(NN=C(C#N)C#N)cc1 [levosimendan]
IC50 (BeWo; [1]): 37.4 µM
GI50 (BeWo; corrected for time zero): 33.9 µM
EC50 (BeWo; curve inflection point): 37.4 µM
IC50 (H9; [1]): 5.4 µM
GI50 (H9; corrected for time zero): 4.31 µM
EC50 (H9; curve inflection point): 4.92 µM
IC50 (HT-1197; [1]): > 100 µM
GI50 (HT-1197; corrected for time zero): 96 µM
EC50 (HT-1197; curve inflection point): > 100 µM
IC50 (Jiyoye; [1]): 62.5 µM
GI50 (Jiyoye; corrected for time zero): 54.6 µM
EC50 (Jiyoye; curve inflection point): 62.5 µM
IC50 (KLE; [1]): 85.4 µM
GI50 (KLE; corrected for time zero): 20.8 µM
EC50 (KLE; curve inflection point): 29.6 µM
IC50 (MEG01; [1]): 83.2 µM
GI50 (MEG01; corrected for time zero): 58.5 µM
EC50 (MEG01; curve inflection point): 83.2 µM
IC50 (MV-4-11; [1]): 13.1 µM
GI50 (MV-4-11; corrected for time zero): 9.2 µM
EC50 (MV-4-11; curve inflection point): 12.6 µM
IC50 (NCI-H596; [1]): > 100 µM
GI50 (NCI-H596; corrected for time zero): > 100 µM
EC50 (NCI-H596; curve inflection point): 55.5 µM
IC50 (RPMI 6666; [1]): 17.2 µM
GI50 (RPMI 6666; corrected for time zero): 11 µM
EC50 (RPMI 6666; curve inflection point): 17.2 µM
IC50 (SNU-C2B; [1]): 55.2 µM
GI50 (SNU-C2B; corrected for time zero): 31.1 µM
EC50 (SNU-C2B; curve inflection point): 45.4 µM
IC50 (SW-13; [1]): 6.13 µM
GI50 (SW-13; corrected for time zero): 3.72 µM
EC50 (SW-13; curve inflection point): 6.13 µM
IC50 (SW579; [1]): 90.1 µM
GI50 (SW579; corrected for time zero): 67.9 µM
EC50 (SW579; curve inflection point): 90.1 µM
IC50 (WiDr; [1]): 77.6 µM
GI50 (WiDr; corrected for time zero): 70.6 µM
EC50 (WiDr; curve inflection point): 77.6 µM
